Molecules are shown by their SMILES.

The record followed here is patent US7745475B2, “Heteroaryl benzamide derivatives as GLK activators” (AstraZeneca AB, priority 2004, dated 2010).

The test system of one data set is Zucker obese fa/fa rats. The data set is described as follows: Oral Glucose Tolerance Test (OGTT). The format is in vivo, rat. On the procedure:
(2) Oral Glucose Tolerance Test (OGTT)
Oral glucose tolerance tests were done on conscious Zucker obese fa/fa rats (age 12-13 weeks or older) fed a high fat diet (45% kcal fat) for at least two weeks prior to experimentation. The animals were fasted for 2 hours before use for experiments. A test compound or a vehicle was given orally 120 minutes before oral administration of a glucose solution at a dose of 2 g/kg body weight. Blood glucose levels were measured using a Accucheck glucometer from tail bled samples taken at different time points before and after administration of glucose (time course of […]). A time curve of the blood glucose levels was generated and the area-under-the-curve (AUC) for 120 minutes was calculated (the time of glucose administration being time zero). Percent reduction in glucose excursion was determined using the AUC in the vehicle-control group as zero percent reduction.

Another data set in a line: Oral exposure. The format is in vivo. The following applies: compared with Example II107 in WO 03/015774.
Data set [1] has as its target T1, recombinant human pancreatic GLK (Homo sapiens, UniProt P35557).
T1 sequence (P35557 1-465): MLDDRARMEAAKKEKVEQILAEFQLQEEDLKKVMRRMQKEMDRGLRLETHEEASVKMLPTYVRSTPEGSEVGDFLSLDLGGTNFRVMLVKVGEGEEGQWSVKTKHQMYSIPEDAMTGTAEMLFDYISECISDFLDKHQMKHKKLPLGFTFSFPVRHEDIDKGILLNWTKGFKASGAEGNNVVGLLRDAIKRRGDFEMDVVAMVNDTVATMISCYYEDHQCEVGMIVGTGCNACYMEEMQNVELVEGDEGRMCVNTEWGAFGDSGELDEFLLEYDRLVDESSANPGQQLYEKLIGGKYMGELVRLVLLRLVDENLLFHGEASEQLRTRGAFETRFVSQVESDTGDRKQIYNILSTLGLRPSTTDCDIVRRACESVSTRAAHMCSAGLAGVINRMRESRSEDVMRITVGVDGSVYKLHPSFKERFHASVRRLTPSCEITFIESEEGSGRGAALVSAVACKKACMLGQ
In words: Enzymatic activity of recombinant human pancreatic GLK (G-6-P dehydrogenase coupled, OD 340 nm). The note with it: comparison in words.

The target in data set [2] is T1, recombinant human pancreatic GLK. The data set is described as follows: biochemical.

What is called EC50 is the concentration giving half of the maximal effect. Take `Cc1nsc(NC(=O)c2cc(Oc3ccc(S(C)(=O)=O)cc3)cc(O[C@@H](C)CO)c2)n1` [Example 3a, 3-[(1S)-2-hydroxy-1-methylethoxy]-5-[4-(methylsulfonyl)phenoxy]-N-(3-methyl-1,2,4-thiadiazol-5-yl)benzamide]: the “OGTT activity (percent reduction in glucose excursion, AUC vs vehicle)” value with Zucker obese fa/fa rats (3 mg/kg, given orally) was found to be 17%. The oral exposure result in “Oral exposure” is given as “superior oral exposure”. The “EC50 values, Example 3a compared with Example II107 in WO 03/015774” value in data set [1] is given as “broadly similar”. In addition, the EC50 in data set [2] was found to be 50 nM. What is called melting point is the temperature of the solid-liquid transition. `C[C@@H](CO)Oc1cc(Oc2ccc(C(=O)N3CCC3)cc2F)cc(C(=O)Nc2ccn(C)n2)c1` [Example 4, 3-[4-(Azetidin-1-ylcarbonyl)-2-fluorophenoxy]-5-[(1S)-2-hydroxy-1-methylethoxy]-N-(1-methyl-1H-pyrazol-3-yl)benzamide] yielded a melting point of 142 °C. Same read-out and setting: next, `CCn1ccc(NC(=O)c2cc(Oc3ccc(C(=O)N4CCC4)cc3F)cc(O[C@@H](C)CO)c2)n1` [Example 9, 3-{[4-(Azetidin-1-ylcarbonyl)-2-fluorophenyl]oxy}-N-(1-ethyl-1H-pyrazol-3-yl)-5-{[(1S)-2-hydroxy-1-methylethyl]oxy}benzamide]: 124 °C; `Cc1nsc(NC(=O)c2cc(Oc3ccc(C(=O)N4CCC4)cc3F)cc(O[C@@H](C)CO)c2)n1` [Example 27, 3-[4-(Azetidin-1-ylcarbonyl)-2-fluorophenoxy]-5-[(1S)-2-hydroxy-1-methylethoxy]-N-(3-methyl-1,2,4-thiadiazol-5-yl)benzamide]: 173 to 175 °C. For `Cc1cnc(NC(=O)c2cc(OCCc3ccsc3)cc(OC(C)C)c2)s1` [Example II107, reference compound], the OGTT activity entry with Zucker obese fa/fa rats (10 mg/kg) is given as “not active”. With `C[C@@H](CO)Oc1cc(Oc2ccc(S(C)(=O)=O)cc2)cc(C(=O)Nc2ccn(C)n2)c1` [compound 3, 3-[(1S)-2-Hydroxy-1-methylethoxy]-N-(1-methyl-1H-pyrazol-3-yl)-5-[4-(methylsulfonyl)phenoxy]benzamide], the melting point was in the range of 126 to 132 °C.
